Results published in patent US8546381B2, “Bridged heterocyclic compounds and methods of use” (Medivation Technologies, Inc., priority 2008, dated 2013).

Key:
[1] = biological target: T1, rat adrenergic α1A receptor (Rattus norvegicus, UniProt P43140); test: Adrenergic α1A radioligand binding ([3H]Prozosin); details: for inhibition at 1 µM: read-out: Adrenergic α1A, inhibition of ligand binding (1 μM)
T1 construct: obtained from Wistar Rat submaxillary glands; from tissue; host or cells: Wistar rat submaxillary glands
T1 sequence (P43140 1-466): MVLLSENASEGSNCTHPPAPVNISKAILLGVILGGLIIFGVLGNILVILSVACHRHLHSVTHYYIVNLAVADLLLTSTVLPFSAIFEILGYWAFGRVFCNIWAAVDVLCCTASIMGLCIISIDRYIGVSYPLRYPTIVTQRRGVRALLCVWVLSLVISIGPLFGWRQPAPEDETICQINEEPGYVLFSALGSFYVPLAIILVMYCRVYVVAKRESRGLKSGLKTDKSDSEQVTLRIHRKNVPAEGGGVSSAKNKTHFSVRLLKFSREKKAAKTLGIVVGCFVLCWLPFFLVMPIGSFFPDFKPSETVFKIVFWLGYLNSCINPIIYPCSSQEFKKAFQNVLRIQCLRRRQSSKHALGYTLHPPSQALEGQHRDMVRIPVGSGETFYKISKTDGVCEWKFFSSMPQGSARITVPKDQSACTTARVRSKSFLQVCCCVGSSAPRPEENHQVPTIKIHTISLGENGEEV
Procedure: To evaluate in radioligand binding assays the activity of compounds of the invention, rat adrenergic α1A receptor obtained from Wistar Rat submaxillary glands (Michel, A. D. et al., Br. J. Pharmacol. 98:883, 1989) in a modified Tris-HCl buffer (50 mM Tris-HCl buffer, pH 7.4, 0.5 mM EDTA) was used. Compounds of the invention were incubated with 0.25 nM [^3H]Prozosin for 60 minutes at 25° C. Non-specific binding was estimated in the presence of 10 μM phentolamine. Receptor proteins were filtered and washed, the filters were then counted to determine [^3H]Prozosin specifically bound. Compounds of the invention were screened at 1 μM or lower, using 1% DMSO as vehicle. Compounds of the invention were tested in this biochemical assay and percent inhibition of specific binding was determined.

[2] = biological target: T2, human recombinant serotonin (5-Hydroxytryptamine) 5-HT7 receptor (Homo sapiens, UniProt P34969); test: Serotonin 5-HT7 radioligand binding ([3H]LSD); details: for inhibition at 1 µM: read-out: Serotonin 5-HT7, inhibition of ligand binding (1 μM)
T2 construct: expressed in transfected cells; host or cells: CHO cells
Procedure: To evaluate in radioligand binding assays the activity of compounds of the invention, human recombinant serotonin (5-Hydroxytryptamine) 5-HT7 receptor expressed in Chinese hamster ovary (CHO) cells (Roth, B. L. et al., J. Pharmacol. Exp. Ther. 268:1403, 1994; Shen, Y. et al., J. Biol. Chem. 268:18200, 1993) in a modified Tris-HCl buffer (50 mM Tris-HCl, pH 7.4, 10 mM MgCl2, 0.5 mM EDTA) was used. Compounds of invention were incubated with 5.5 nM [^3H] Lysergic acid diethylamide (LSD) for 2 hours at 25° C. Non-specific binding was estimated in the presence of 10 μM Serotonin (5-HT). Receptor proteins were filtered and washed, the filters were then counted to determine [^3H]LSD specifically bound. Compounds were screened at 1 μM or lower, using 1% DMSO as vehicle. Biochemical assay results are presented as the percent inhibition of specific binding in Table 4.

[3] = biological target: T3, human recombinant adrenergic α1D receptor (Homo sapiens, UniProt P25100); test: Adrenergic α1D radioligand binding ([3H]Prozosin); details: for inhibition at 1 µM: read-out: Adrenergic α1D, inhibition of ligand binding (1 μM)
T3 construct: expressed in transfected cells; host or cells: HEK-293 cells
T3 sequence (P25100 1-572): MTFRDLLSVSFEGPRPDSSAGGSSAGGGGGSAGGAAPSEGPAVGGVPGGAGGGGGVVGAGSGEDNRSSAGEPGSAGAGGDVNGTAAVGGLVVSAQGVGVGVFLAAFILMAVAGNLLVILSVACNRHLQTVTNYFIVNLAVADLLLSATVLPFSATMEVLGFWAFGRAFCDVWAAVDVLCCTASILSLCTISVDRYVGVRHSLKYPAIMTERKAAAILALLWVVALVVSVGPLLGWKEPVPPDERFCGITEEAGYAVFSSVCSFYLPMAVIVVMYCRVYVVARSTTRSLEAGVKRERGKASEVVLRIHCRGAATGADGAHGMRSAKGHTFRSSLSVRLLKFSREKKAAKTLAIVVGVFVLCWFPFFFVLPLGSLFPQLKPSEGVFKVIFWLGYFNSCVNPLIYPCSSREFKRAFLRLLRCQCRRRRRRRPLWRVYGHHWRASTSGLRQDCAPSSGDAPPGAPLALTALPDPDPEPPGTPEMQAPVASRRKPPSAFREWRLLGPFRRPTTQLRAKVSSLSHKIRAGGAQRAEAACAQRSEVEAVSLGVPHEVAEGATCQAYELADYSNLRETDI
Procedure: To evaluate in radioligand binding assays the activity of compounds of the invention, human recombinant adrenergic α1D receptor expressed in human embryonic kidney (HEK-293) cells (Kenny, B. A. et al. Br. J. Pharmacol. 115(6):981, 1995) in a 50 mM Tris-HCl buffer, pH 7.4, was used. Compounds of invention were incubated with 0.6 nM [^3H]Prozosin for 60 minutes at 25° C. Non-specific binding was estimated in the presence of 10 μM phentolamine. Receptor proteins were filtered and washed, the filters were then counted to determine [^3H]Prozosin specifically bound. Compounds were screened at 1 μM or lower, using 1% DMSO as vehicle. Biochemical assay results are presented as the percent inhibition of specific binding in Table 3.

[4] = system: rat central imidazoline I2 receptor; test: Central imidazoline I2 radioligand binding ([3H]Idazoxan); details: compound at 1 μM; inhibition of specific [3H]Idazoxan binding
Procedure: To evaluate in radioligand binding assays the activity of compounds of the invention, rat central imidazoline I2 receptor obtained from Wistar Rat cerebral cortex (Brown, C. M. et al., Br. J. Pharmacol. 99:803, 1990) in a modified Tris-HCl buffer (50 mM Tris-HCl buffer, pH 7.4, 0.5 mM EDTA) was used. Compounds of the invention were incubated with 2 nM [^3H]Idazoxan for 30 minutes at 25° C. Non-specific binding was estimated in the presence of 1 μM Idazoxan. Receptor proteins were filtered and washed, the filters were then counted to determine [^3H]Idazoxan specifically bound. Compounds were screened at 1 μM or lower, using 1% DMSO as vehicle. Compounds of the invention were tested in this biochemical assay and percent inhibition of specific binding was determined.

T2 sequence (P34969 whole entry): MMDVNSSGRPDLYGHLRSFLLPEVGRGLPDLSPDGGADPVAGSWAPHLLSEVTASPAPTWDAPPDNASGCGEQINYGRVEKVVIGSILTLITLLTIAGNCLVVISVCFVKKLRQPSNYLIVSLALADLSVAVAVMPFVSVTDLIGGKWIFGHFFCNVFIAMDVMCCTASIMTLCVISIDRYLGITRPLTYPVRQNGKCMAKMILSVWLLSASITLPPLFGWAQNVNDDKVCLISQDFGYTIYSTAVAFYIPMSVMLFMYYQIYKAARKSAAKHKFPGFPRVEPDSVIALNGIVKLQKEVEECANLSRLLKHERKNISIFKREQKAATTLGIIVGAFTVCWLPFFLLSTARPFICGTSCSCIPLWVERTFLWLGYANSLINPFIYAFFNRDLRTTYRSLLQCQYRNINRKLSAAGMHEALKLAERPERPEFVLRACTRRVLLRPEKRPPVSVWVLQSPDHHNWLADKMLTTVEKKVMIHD

Row | Compound | inhibition at 1 µM [2] [%] | inhibition at 1 µM [3] [%] | Imidazoline I2 Central (1 μM), Percentage Inhibition [4] [%] | other results
1 | Cc1ccc2c(c1)c1c(n2CCc2ccccc2)CC2CCC1N2C (stereo not drawn) [Compound 2] | 98 | 94 | 70 | inhibition at 0.03 µM ([1]; read-out: Adrenergic α1A, inhibition of ligand binding (0.03 μM)): 66%; inhibition at 0.3 µM ([1]; read-out: Adrenergic α1A, inhibition of ligand binding (0.3 μM)): 97%; inhibition at 1 µM [1]: 98%; inhibition at 0.003 µM ([2]; read-out: Serotonin 5-HT7, inhibition of ligand binding (3.0 nM)): 38%; inhibition at 0.03 µM ([2]; read-out: Serotonin 5-HT7, inhibition of ligand binding (0.03 μM)): 81%; inhibition at 0.03 µM ([3]; 0.03 μM, read-out: Adrenergic α1D, inhibition of ligand binding (0.03 μM)): 44%; inhibition at 0.3 µM ([3]; 0.3 μM, read-out: Adrenergic α1D, inhibition of ligand binding (0.3 μM)): 85%
2 | CN1C2CCC1c1c(n(CCC(=O)N3CCCC3)c3ccc(Cl)cc13)C2 (stereo not drawn) [Compound 5] |  | 21 | 25 | 
3 | CN1C2CCC1c1c(n(CCC(=O)N3CCOCC3)c3ccc(Cl)cc13)C2 (stereo not drawn) [Compound 13] |  | 8 | −7 | 
4 | CN1C2CCC1c1c(n(CCc3ccc(Cl)cc3)c3ccc(F)cc13)C2 (stereo not drawn) [Compound 33] |  | 36 | 6 | 
5 | CN1C2CCC1c1c(n(CCc3ccc(F)cc3)c3ccc(F)cc13)C2 (stereo not drawn) [Compound 35] |  | 78 | 33 | 
6 | Cc1ccc2c(c1)c1c(n2CCc2ccccc2)CC2CCCC1N2C (stereo not drawn) [Compound 56] | 92 | 65 | 27 | inhibition at 1 µM [1]: 94%
7 | CN1C2CCC1c1c(n(CCc3ccc(F)cc3)c3ccc(Cl)cc13)C2 (stereo not drawn) [Compound 57] | 94 | 69 | 8 | inhibition at 1 µM [1]: 90%
8 | CN1C2CCC1c1c(n(CCc3ccc(Cl)cc3)c3ccc(Cl)cc13)C2 (stereo not drawn) [Compound 58] | 93 | 74 | 8 | inhibition at 1 µM [1]: 89%
9 | CN1C2CCC1c1c(n(CC(=O)N3CCOCC3)c3ccc(Cl)cc13)C2 (stereo not drawn) [Compound 59, 2-(2-chloro-11-methyl-5,6,7,8,9,10-Hexahydro-7,10-iminocyclohept[b]indol-5-yl)-1-morpholinoethanone] |  | 2 | −8 | 
10 | CN1C2CCC1c1c(n(CC(=O)N3CCCC3)c3ccc(Cl)cc13)C2 (stereo not drawn) [Compound 60] |  | 1 | 1 | 
11 | Cc1ccc(CCn2c3c(c4cc(Cl)ccc42)C2CCC(C3)N2C)cc1 (stereo not drawn) [Compound 61] |  | 80 | 22 | 
12 | Cc1ccc2c(c1)c1c(n2CCc2ccc(F)cc2)CC2CCC1N2C (stereo not drawn) [Compound 62] |  | 83 | 52 | 
13 | CN1C2CCC1c1c(n(C#Cc3ccc(Cl)cc3)c3ccc(Cl)cc13)C2 (stereo not drawn) [Compound 142] | 57 | 27 |  | 
14 | COc1ccc(C(C)(O)Cn2c3c(c4cc(Cl)ccc42)C2CCC(C3)N2C)cc1F (stereo not drawn) [Compound 160] | 75 | 0 |  | 
15 | COc1ccc(C(C)(O)Cn2c3c(c4cc(C)ccc42)C2CCC(C3)N2C)cc1F (stereo not drawn) [Compound 161] | 69 | 30 |  | 
16 | Cc1ccc2c(c1)c1c(n2C(=O)Cc2ccc(Cl)cc2)CC2CCC1N2C (stereo not drawn) [Compound 162] | 43 | 34 |  | 
17 | C/C(=C\n1c2c(c3cc(C)ccc31)C1CCC(C2)N1C)c1ccc(Cl)cc1Cl (stereo not drawn) [Compound 163] | 87 | 53 |  | 
